{
  "source": "patent US8080235B2",
  "about": "“Protein kinase A reporters useful in high throughput assays” (The Johns Hopkins University, priority 2005, dated 2011)",
  "format_in_all_cases": "cell-based",
  "key": {"PKA activity [1]": {"system": "PKA activity", "experiment": "AKAR3 live cell 96-well plate reader assay (yellow/cyan emission ratio)", "protocol": "(§1) Live Cell Plate Reading. HEK-293 cells were transfected with AKAR3 or ICUE3 using calcium phosphate at 40% confluency and grown for 40 hours. Cells were then trypsinized and plated in a Costar 3603 96-well plate (Corning) at a density of 150,000 cells per well. After incubation for another 24 hours, cells were washed once with HBSS and left in 150 μl of HBSS at 20-25° C. Fluorescence reading was taken on a FLUOstar OPTIMA fluorescence microplate reader (BMG Labtechnologies Inc.) using a 420DF20 excitation filter and two emission filters (470DF40 for cyan and 535DF25 for yellow). A baseline was established in three cycles, each consisting of a full plate reading of yellow intensity, followed by a reading of cyan intensity.\n(§2) Each cycle lasted between 64 and 92 seconds. Cells were then treated with ISO, Fsk, H89, Propranolol (Pro; Sigma), or 3-isobutyl-1-methylxanthine (IBMX; Sigma) as indicated. Readings were taken in additional cycles. FRET change was calculated as the percent increase of emission ratios (yellow-to-cyan for AKAR and cyan-to-yellow for ICUE) over baseline for each well during a given cycle. Several parameters were calculated to assess the efficiency of the assay, including Z′ factor, coefficient of variation, and signal to noise (S/N) ratio (22).\nAKAR2 (FIG. 4). This reporter, AKAR3 (FIG. 1b), was tested in a 96-well plate format. […] As negative controls, addition of buffer of 2% DMSO generated minimal changes in emission ratios. This 96-well plate assay was sensitive and reproducible, with a signal to noise ratio of 30.3, a Z′ factor of 0.84, and a coefficient of variation (CV) of 1.8% for the Fsk-stimulated response.\nTo provide specific readout of compartmentalized PKA activities, we introduced a C-terminal nuclear export signal (NES) to AKAR3 . In the plate reader assay using AKAR3 -NES (FIG. 1d), cytosolic PKA activity was recorded without contamination of nuclear activity, which has slower kinetics due to diffusional translocation of the catalytic subunit from cytosol to nucleus. […] Thus, sensor targeting provides increased temporal and spatial resolution and can be used to reveal how individual signaling microdomains, such as kinase-containing signaling complexes, are affected by drugs or other perturbations, adding another level of capacity to the non-image-based high-throughput assays of the invention."}, "cAMP [2]": {"system": "cAMP", "experiment": "ICUE3 live cell high-throughput cAMP plate reader assay (cyan/yellow emission ratio)", "protocol": "as §1, §2\nTo follow the activity of the signaling pathway and to assay related drug targets in parallel, we developed a live cell-based high-throughput assay for cAMP, a second messenger that is generated via activation of Gs-coupled GPCRs and exerts its effects by activating PKA and other effectors. Similar improvement approaches were first applied to create a reporter that more than doubled the response of previous “Indicator for cAMP Using Epac” (ICUE), which generates a decrease in FRET upon binding of cAMP (FIG. 5). […] Possible sources of the variation and reduced signal are transfection efficiency and expression variability."}, "PKA activity [3]": {"system": "PKA activity", "experiment": "AKAR3 high-throughput screening of Johns Hopkins Clinical Compound Library", "settings": "10 μM compound about 15 min, then 0.25 μM ISO", "protocol": "Live Cell High-Throughput Screening. […] After incubation for 24 hours, cells were washed once with HBSS and left in 190 μl of HBSS at 20-25° C. Fluorescence readings were taken as described above, with each cycle lasting 90 seconds. Following baseline acquisition, cells in each experimental well were treated with a compound from the Johns Hopkins Clinical Compound Library to a final concentration of 10 μM. Control cells were treated with 10 μL of 10% fetal bovine serum (FBS) in a solution of phosphate buffered saline (PBS) at pH 7.4, which is the solution used to dissolve library compounds.\nTen final cycles were then performed.\nFRET responses were calculated as described above. […] Agonist hits were defined as compounds eliciting responses larger than six times the standard deviation above the baseline. Antagonist hits were defined as compounds which decreased the ISO stimulated response by 50% or by six times the standard deviation.\nIn a primary screening, 160 compounds from the Johns Hopkins Clinical Compound Library were added to AKAR3-expressing HEK-293 cells in individual wells of 96-well plates to a final concentration of 10 μM after a base line reading. Time courses were recorded to monitor any fluorescence changes upon drug addition and to identify hits which activate PKA as potential agonists.\nPotential agonists were identified by selecting compounds which stimulated emission ratio changes larger than 6 times the standard deviation above the negative control (FIG. 3a )."}, "cAMP [4]": {"system": "cAMP", "experiment": "ICUE high-throughput screening of Johns Hopkins Clinical Compound Library (stable cells)", "settings": "10 μM compound, then 0.25 μM Iso plus 100 μM IBMX", "protocol": "Live Cell High-Throughput Screening. HEK-293 cells transiently expressing AKAR or stably expressing ICUE were trypsinized and plated in a Costar 3606 96-well plate (Corning) at a density of 150,000 cells per well. After incubation for 24 hours, cells were washed once with HBSS and left in 190 μl of HBSS at 20-25° C. Fluorescence readings were taken as described above, with each cycle lasting 90 seconds. Following baseline acquisition, cells in each experimental well were treated with a compound from the Johns Hopkins Clinical Compound Library to a final concentration of 10 μM. Control cells were treated with 10 μL of 10% fetal bovine serum (FBS) in a solution of phosphate buffered saline (PBS) at pH 7.4, which is the solution used to dissolve library compounds.\nReadings were taken for 10 cycles spanning a time of approximately 15 minutes, after which cells in experimental wells and positive controls were treated with 0.25 μM ISO (AKAR) or 0.25 μM Iso plus 100 μM IBMX (ICUE), while negative controls received 0.5% DMSO in HBSS. Ten final cycles were then performed.\nFRET responses were calculated as described above. Negative control (10% FBS, 0.5% DMSO) and positive control (10% FBS, 0.25 μM ISO) curves were generated. Agonist hits were defined as compounds eliciting responses larger than six times the standard deviation above the baseline. […]"}},
  "data": [
    {"smiles": "CC(C)NCC(O)COc1cccc2ccccc12", "note": "(stereo not drawn) [Pro, propranolol]", "values": [
      {"measurement": "effect on ISO-induced AKAR3 response", "setting": "PKA activity [1]; 10 μM Pro, FIG. 2", "result": "inhibited"},
      {"measurement": "effect on Fsk-stimulated AKAR3 response", "setting": "PKA activity [1]; FIG. 2d", "result": "no effect"},
      {"measurement": "effect on Fsk-stimulated ICUE3 response", "setting": "cAMP [2]; FIG. 2c", "result": "no effect"},
      {"measurement": "effect on ISO-induced ICUE3 response", "setting": "cAMP [2]; co-treatment, 10 μM Pro, FIG. 2a", "result": "inhibited"},
      {"measurement": "antagonist screen: effect on ISO-stimulated AKAR response", "setting": "PKA activity [3]", "result": "potently inhibited"},
      {"measurement": "antagonist screen: effect on ISO-stimulated ICUE response", "setting": "cAMP [4]", "result": "potently inhibited"}
    ]}
  ]
}
